Measured values from US7888042B2, “Methods for identifying insulin mimetics” (Ohio University, priority 2005, dated 2011).

What was measured:
db/db mice = test: Blood glucose in fasting db/db mice, oral dose; format: in vivo
Description: (§1) Either 6-8 week old male db/db mice or 8-12 week old male ob/ob mice were treated with aqueous solutions of α-PGG by either oral delivery (˜10 μL, A & B) or ip injection (˜50 μL, C, & D). (n=8-10, mean±SD, one-way ANOVA). α-PGG (●); vehicle (∘). α-PGG (20 mg/kg) was orally delivered without glucose to fasting db/db mice (A *, P<0.02; **, P<0.01; ***, P<0.001) or with glucose (0.4 g/kg body weight) to fasting ob/ob mice (B, glucose tolerance test). α-PGG (20 mg/kg) was ip injected into ob/ob mice on day 0 and day 4 (C). A single ip injection (20 mg/kg) of α-PGG was administered to ob/ob mice (D). Glucose (A, B, C) or insulin (D) was determined from sera or plasma isolated from tail vein blood. Animal studies. Genetically diabetic db/db mice or obese ob/ob mice were purchased from Jackson Lab. Male mice of 2-3 months of age were used. Unless otherwise stated, 10 mice (N=10) were used per group. α-PGG was either orally administered or intraperitoneally (ip) injected in the form of an aqueous solution at 20 mg/kg body weight with a 1-cc sterile plastic syringe. At different times after the α-PGG administration, blood or plasma was collected from the tail vein for measurement of glucose and insulin concentrations using commercial kits. Vehicle (aqueous solution) treated mice were used as controls and were statistically compared with the α-PGG treated mice. All animal studies were conducted in accord with the Ohio University guidelines for the use and care of laboratory animals.

[1] = target: T1, IR isolated from CHO-IR cells (Homo sapiens, UniProt P06213); test: 125I-insulin saturation binding to IR in WGA-coated wells; details: 30 μM or 50 μM α-PGG
T1 construct: expressed in transfected cells; host or cells: CHO-IR cells (from Dr. Alan Saltiel's lab)
T1 sequence (P06213 28-758 limits assumed): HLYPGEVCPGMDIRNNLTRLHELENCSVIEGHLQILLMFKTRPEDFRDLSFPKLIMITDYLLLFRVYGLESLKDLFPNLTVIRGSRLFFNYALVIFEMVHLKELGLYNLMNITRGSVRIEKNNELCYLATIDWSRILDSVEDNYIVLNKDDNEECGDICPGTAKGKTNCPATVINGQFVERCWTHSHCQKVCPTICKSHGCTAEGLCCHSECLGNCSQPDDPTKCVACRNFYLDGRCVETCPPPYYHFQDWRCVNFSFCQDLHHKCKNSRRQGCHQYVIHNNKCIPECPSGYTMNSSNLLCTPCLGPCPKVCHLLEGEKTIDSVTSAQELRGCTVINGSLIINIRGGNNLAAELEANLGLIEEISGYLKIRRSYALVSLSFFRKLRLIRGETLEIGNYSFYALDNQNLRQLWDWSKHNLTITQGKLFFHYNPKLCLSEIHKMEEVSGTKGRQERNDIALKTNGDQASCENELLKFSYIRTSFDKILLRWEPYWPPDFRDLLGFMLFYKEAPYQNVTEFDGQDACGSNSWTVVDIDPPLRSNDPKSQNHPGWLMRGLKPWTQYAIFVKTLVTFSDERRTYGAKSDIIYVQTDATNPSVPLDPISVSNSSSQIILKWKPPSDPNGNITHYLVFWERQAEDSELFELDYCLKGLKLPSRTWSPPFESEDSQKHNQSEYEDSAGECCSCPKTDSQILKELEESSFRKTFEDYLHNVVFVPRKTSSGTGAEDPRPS
T1 sequence (P06213 763-1382 partner limits assumed): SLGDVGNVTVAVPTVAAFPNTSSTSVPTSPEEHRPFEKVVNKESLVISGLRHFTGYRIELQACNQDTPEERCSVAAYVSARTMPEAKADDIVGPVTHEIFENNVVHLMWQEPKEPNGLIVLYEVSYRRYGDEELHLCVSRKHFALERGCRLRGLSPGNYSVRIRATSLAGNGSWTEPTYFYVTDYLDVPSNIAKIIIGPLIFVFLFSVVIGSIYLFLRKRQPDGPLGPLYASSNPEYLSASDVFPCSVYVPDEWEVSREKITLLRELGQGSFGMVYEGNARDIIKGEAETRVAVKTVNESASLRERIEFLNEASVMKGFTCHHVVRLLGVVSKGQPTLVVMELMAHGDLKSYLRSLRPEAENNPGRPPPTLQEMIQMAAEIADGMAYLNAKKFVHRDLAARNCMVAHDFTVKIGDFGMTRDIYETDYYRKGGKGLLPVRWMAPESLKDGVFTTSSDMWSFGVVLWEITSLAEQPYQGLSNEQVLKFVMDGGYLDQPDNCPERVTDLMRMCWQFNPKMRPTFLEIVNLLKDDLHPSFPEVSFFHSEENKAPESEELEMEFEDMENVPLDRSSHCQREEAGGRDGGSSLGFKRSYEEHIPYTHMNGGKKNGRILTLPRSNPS
Description: (A) α-PGG binds to IR as measured by a SPR (28). Increasing concentrations of α-PGG was injected into the system to interact with the pure IR attached to the gold surface of the biosensor chip. The binding, represented in arbitrary response units, was automatically plotted against α-PGG concentrations to generate the binding curve. (B) Insulin binding to IR in the absence or presence of α-PGG. Increasing amounts of ^125I-labeled insulin were added to WGA-coated wells containing pre-bound IR isolated from CHO-IR cells in the absence of α-PGG or in the presence of 30 μM or 50 μM of α-PGG. After overnight incubation, removal of excessive ligands, and washing, the bound radioactive insulin was measured. (C) Insulin displacement by α-PGG. Fixed amounts of radioactive insulin (1 nM) were added to each of the WGA-coated wells pre-bound with IR. Increasing amounts of α-PGG were added to the wells to displace the ^125I-labeled insulin. […]
Insulin receptor binding studies. […] After sensograms of α-PGG-IR binding at different concentrations were recorded, the binding affinity was analyzed using BIAevaluation software. […] The bound ligand was detached (eluted) from the receptor with 2×200 μL 0.2M Glycine pH 2.8, and measured for its radioactivity using a Beckman Coulter LS 6400 Multi-Purpose Scintillation Counter. […] The receptor binding results were analyzed with the software GraphPad Prism.

[2] = Body weight, food intake and physical activity of treated mice; format: in vivo; details: treated mice vs control mice
Description: Animal studies. Genetically diabetic db/db mice or obese ob/ob mice were purchased from Jackson Lab. Male mice of 2-3 months of age were used. Unless otherwise stated, 10 mice (N=10) were used per group. α-PGG was either orally administered or intraperitoneally (ip) injected in the form of an aqueous solution at 20 mg/kg body weight with a 1-cc sterile plastic syringe. At different times after the α-PGG administration, blood or plasma was collected from the tail vein for measurement of glucose and insulin concentrations using commercial kits. Vehicle (aqueous solution) treated mice were used as controls and were statistically compared with the α-PGG treated mice. All animal studies were conducted in accord with the Ohio University guidelines for the use and care of laboratory animals.

ob/ob mice [3] = test: Plasma insulin in ob/ob mice, ip injection; format: in vivo; details: single ip injection 20 mg/kg
Description: as §1, with “All animal studies were conducted in accord with the Ohio University guidelines for the use and care of laboratory animals.” left out

ob/ob mice [4] = test: Glucose tolerance test in ob/ob mice, oral dose; format: in vivo
Description: as §1

With `O=C(OC[C@H]1O[C@H](OC(=O)c2cc(O)c(O)c(O)c2)[C@H](OC(=O)c2cc(O)c(O)c(O)c2)[C@@H](OC(=O)c2cc(O)c(O)c(O)c2)[C@@H]1OC(=O)c1cc(O)c(O)c(O)c1)c1cc(O)c(O)c(O)c1` [α-PGG, alpha 1,2,3,4,6-penta-O-galloyl-D-Glucopyranose] the “duration of blood glucose difference” value (db/db mice; oral 20 mg/kg) was “at least 5 hours”, the “glucose level lower than control group” value (db/db mice; oral 20 mg/kg, 4 to 6 hours after treatment) was “about 20%” and the blood glucose levels (db/db mice; single oral dose 20 mg/kg) was “significantly decreased”. For the same molecule, the “maximal binding (Bmax) for insulin” value [1] was “reduced in a dose-dependent manner”, the body weight [2] was “No significant changes” and the food intake [2] was “No significant changes”. The physical activity [2] was “No significant changes”, the plasma insulin levels (ob/ob mice [3]; hyperinsulinemic ob/ob mice) was “significantly lower” and the “duration of anti-hyperinsulinemic effects” value (ob/ob mice [3]; ob/ob mice) was “at least 24 hours”. For the same molecule, the “duration of blood glucose difference” value (ob/ob mice [4]; oral 20 mg/kg) was “at least 5 h”, the “largest difference in glucose levels vs control group” value (ob/ob mice [4]; oral 20 mg/kg) was “about 20%” and the glucose tolerance (ob/ob mice [4]; single oral dose 20 mg/kg with glucose 0.4 g/kg) was “significantly improved”.
